Test system: primary cultured cells of mouse fetus-derived dorsal root ganglia (DRGs)
Assay: Suppression of axonal degeneration after axotomy in DRG explant culture
Assay type: cell-based
Details: Mus musculus; minimum concentration at which axonal degeneration was suppressed (DI 0.3 or less); 24 hours after axotomy; read-out: Evaluation on protection against degeneration
In short: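 Embryonic ICR mouse DRG explants were cultured 7–8 days in nicotinamide-free neuronal medium with NGF, then axotomized by removing the cell bodies. Compound (100 pM–10 µM final, 0.1% DMSO) was added within 30 min, and neurites were imaged 24 h later. The result is the lowest concentration giving degeneration index ≤0.3.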

Row | Structure (SMILES) | minimal effective concentration [µM]
1 | O=C(NCCCOCCOCCCNC(=O)c1cccnc1)c1cccnc1 [compound 35] | ≤ 0.01
2 | CC(C)(C)C(=O)Nc1ccc(CNC(=O)c2cccnc2)cn1 [compound 76] | ≤ 0.01
3 | O=C(NCc1ccc(NC(=O)c2ccccc2)nc1)c1cccnc1 [compound 105] | ≤ 0.01

From patent EP4793271A1, “NEUROPROTECTIVE AGENT” (National Center of Neurology and Psychiatry, priority 2023, dated 2025)
